Measurements: patent publication US12110289B2, “Heterocyclic compounds, preparation methods and uses thereof” (InventisBio Co., Ltd., priority 2020, dated 2024)

These compounds were tested on Lung cancer cell line NCI-H358 containing KRas G12C mutation (assay: Assay for cell proliferation (Cell-titer Glo, 5 days)). Conditions: Homo sapiens, NCI-H358, 120 h, NCI-H358, 5 days, Cell-titer Glo; read-out: IC50 (nM), Inhibition of NCI-H358 Cell Proliferation.
Format: cell-based, human
Method: One hundred fifty microliter (150 μL) of media containing 2000 cells per well were seeded into each well of a 96-well culture plate and left to attach overnight in a 37° C. incubator with 5% CO2. Diluted compounds of 0.75 μL for each well were added by liquid handler at a final concentration of 0.5% DMSO. Cells were treated for 5 days in the incubator. Cell-titer Glo (CTG) kit (Promega) was used to assess cell proliferation. Of note, 120 μL of CTG reagent was added to each well and incubated at RT for 10 minutes.

`C=CC(=O)N1CCN(c2nc(=O)n(-c3c(C)nc4c(ncn4C)c3C(C)C)c3nc(-c4c(O)cccc4F)c(F)cc23)[C@@H](C)C1` (single isomer, unassigned) [Compound 163] and `C=CC(=O)N1CCN(c2nc(=O)n(-c3c(C4CC4)nc(C#N)nc3C3CC3)c3nc(-c4c(O)cccc4F)c(F)cc23)[C@@H](C)C1` [Compound 25] are within 1.5-fold of each other in IC50: 44.2 nM for the first, 52.5 nM for the second.

First: C=CC(=O)N1C[C@H](C)N(c2nc(=O)n(-c3c(C(C)C)ncnc3C(C)C)c3nc(-c4c(N)cccc4F)c(F)cc23)C[C@H]1C [4-((2S,5R)-4-acryloyl-2,5-dimethylpiperazin-1-yl)-7-(2-amino-6-fluorophenyl)-1-(4,6-diisopropylpyrimidin-5-yl)-6-fluoropyrido[2,3-d]pyrimidin-2(1H)-one]
Second: C=CC(=O)N1C[C@H](C)N(c2nc(=O)n(-c3c(C(C)C)ncnc3C(C)C)c3nc(-c4c(N)cccc4F)c(Cl)cc23)C[C@H]1C [4-((2S,5R)-4-acryloyl-2,5-dimethylpiperazin-1-yl)-7-(2-amino-6-fluorophenyl)-6-chloro-1-(4,6-diisopropylpyrimidin-5-yl)pyrido[2,3-d]pyrimidin-2(1H)-one]
The IC50 of the first is 3.3-fold higher: 5.3 nM for the first, 1.6 nM for the second.

Going from `C=CC(=O)N1C[C@H](C)N(c2nc(=O)n(-c3c(C(C)C)ncnc3C(C)C)c3nc(-c4ccccc4F)c(F)cc23)C[C@H]1C` [4-((2S,5R)-4-acryloyl-2,5-dimethylpiperazin-1-yl)-7-(2-fluorophenyl)-1-(4,6-diisopropylpyrimidin-5-yl)-6-fluoropyrido[2,3-d]pyrimidin-2(1H)-one] to `C=CC(=O)N1C[C@H](C)N(c2nc(=O)n(-c3c(C(C)C)ncnc3C(C)C)c3nc(-c4ccccc4F)c(Cl)cc23)C[C@H]1C` [4-((2S,5R)-4-acryloyl-2,5-dimethylpiperazin-1-yl)-7-(2-fluorophenyl)-6-chloro-1-(4,6-diisopropylpyrimidin-5-yl)pyrido[2,3-d]pyrimidin-2(1H)-one], the IC50 falls from 19 nM to 4 nM (4.8-fold).

Going from `C=CC(=O)N1CCN(c2nc(=O)n(-c3c(C(C)C)ncnc3C(C)C)c3nc(-c4ccccc4F)c(Cl)cc23)C[C@@H]1CC#N` [Compound 2] to `C=CC(=O)N1CCN(c2nc(=O)n(-c3c(C4CC4)ncnc3C3CC3)c3nc(-c4ccccc4F)c(Cl)cc23)C[C@@H]1CC#N` [Compound 5], the IC50 rises from 23.9 nM to 172 nM (7.2-fold). The first is the more potent here.

Going from `C=CC(=O)N1CCN(c2nc(=O)n(-c3c(C4CC4)ncnc3C3CC3)c3nc(-c4cccc5[nH]nc(N)c45)c(Cl)cc23)[C@@H](C)C1` [Compound 3] to `C=CC(=O)N1CCN(c2nc(=O)n(-c3c(C4CC4)ncnc3C3CC3)c3nc(-c4ncccc4F)c(Cl)cc23)[C@@H](C)C1` [Compound 4], the IC50 falls from 661 nM to 130 nM (5.1-fold). The second is the more potent here.

Compared with `C=CC(=O)N1CCN(c2nc(=O)n(-c3c(C(C)C)nc(N4CCC4)nc3C(C)C)c3nc(-c4ccccc4F)c(Cl)cc23)[C@@H](C)C1` [Compound 7], `C=CC(=O)N1CCN(c2nc(=O)n(-c3c(C(C)C)nc(NC)nc3C(C)C)c3nc(-c4ccccc4F)c(Cl)cc23)[C@@H](C)C1` [Compound 11] is 3.3-fold lower in IC50: 30.6 nM for the first, 9.2 nM for the second.

Going from `C=CC(=O)N1CCN(c2nc(=O)n(-c3c(C(C)C)nc(N(C)C)nc3C(C)C)c3nc(-c4ccccc4F)c(Cl)cc23)[C@@H](C)C1` [Compound 12] to `C=CC(=O)N1CCN(c2nc(=O)n(-c3c(C(C)C)nc(OCCOC)nc3C(C)C)c3nc(-c4ccccc4F)c(Cl)cc23)[C@@H](C)C1` [Compound 32], the IC50 falls from 107 nM to 8.5 nM (13-fold). The second is the more potent here.

Compared with `C=CC(=O)N1CCN(c2nc(=O)n(-c3c(C(C)C)nc(OCC(C)(C)O)nc3C(C)C)c3nc(-c4ccccc4F)c(Cl)cc23)[C@@H](C)C1` [Compound 16], `C=CC(=O)N1CCN(c2nc(=O)n(-c3c(C(C)C)nc(OCC(C)O)nc3C(C)C)c3nc(-c4ccccc4F)c(Cl)cc23)[C@@H](C)C1` (some centres unmarked) [Compound 19] is 1.6-fold lower in IC50: 8 nM for the first, 5 nM for the second. The second is the more potent here.

`C=CC(=O)N1CCN(c2nc(=O)n(-c3c(C(C)C)nc(OC4CCN(C)C4)nc3C(C)C)c3nc(-c4ccccc4F)c(Cl)cc23)[C@@H](C)C1` (some centres unmarked) [Compound 17] and `C=CC(=O)N1CCN(c2nc(=O)n(-c3c(C(C)C)nc(OC4CN(C)C4)nc3C(C)C)c3nc(-c4ccccc4F)c(Cl)cc23)[C@@H](C)C1` [Compound 18] are within 1.5-fold of each other in IC50: 14.4 nM for the first, 16 nM for the second.

Going from `C=CC(=O)N1CCN(c2nc(=O)n(-c3c(C4CC4)nc(C#N)nc3C3CC3)c3nc(-c4ccccc4F)c(F)cc23)[C@@H](C)C1` [Compound 26] to `C=CC(=O)N1CCN(c2nc(=O)n(-c3c(C4CC4)nc(C)nc3C3CC3)c3nc(-c4ccccc4F)c(F)cc23)[C@@H](C)C1` [Compound 27], the IC50 falls from 168 nM to 69.9 nM (2.4-fold). The second is the more potent here.

`C=CC(=O)N1CCN(c2nc(=O)n(-c3c(C4CC4)nc(N)nc3C3CC3)c3nc(-c4ccccc4F)c(F)cc23)[C@@H](C)C1` [Compound 30] and `C=CC(=O)N1CCN(c2nc(=O)n(-c3c(C4CC4)nc(NCCN(C)C)nc3C3CC3)c3nc(-c4ccccc4F)c(F)cc23)[C@@H](C)C1` [Compound 33] are within 1.5-fold of each other in IC50: 52.7 nM for the first, 67.5 nM for the second.

Compared with `C=CC(=O)N1[C@H](C)CN(c2nc(=O)n(-c3c(C(C)C)nc(OCCN(C)C)nc3C(C)C)c3nc(-c4ccccc4F)c(Cl)cc23)C[C@@H]1C` [Compound 31], `C=CC(=O)N1CCN(c2nc(=O)n(-c3c(C4CC4)nc(N4CC(N(C)C)C4)nc3C3CC3)c3nc(-c4ccccc4F)c(F)cc23)[C@@H](C)C1` [Compound 34] is 2.1-fold higher in IC50: 28.2 nM for the first, 58.3 nM for the second. The first is the more potent here.

Same assay, conditions: NCI-H358, 5 days, Cell-titer Glo; read-out: IC50 (nM), Inhibition of NCI-H358 Cell Proliferation

Compared with `C=CC(=O)N1C[C@H](C)N(c2nc(=O)n(-c3c(C)nc4c(ncn4C)c3C(C)C)c3nc(-c4c(N)cccc4F)c(F)cc23)C[C@H]1C` (single isomer, unassigned) [Compound 164], `C=CC(=O)N1C[C@H](C)N(c2nc(=O)n(-c3c(C)nc4c(ncn4C)c3C(C)C)c3nc(-c4c(N)cccc4F)c(Cl)cc23)C[C@H]1C` (single isomer, unassigned) [Compound 175] is lower in IC50: greater than 1000 nM for the first, 16.1 nM for the second.

Going from `C=CC(=O)N1C[C@H](C)N(c2nc(=O)n(-c3c(C)nc4c(ncn4C)c3C(C)C)c3nc(-c4c(N)cccc4F)c(F)cc23)C[C@H]1C` (single isomer, unassigned) [Compound 165] to `C=CC(=O)N1C[C@H](C)N(c2nc(=O)n(-c3c(C)nc4c(ncn4C)c3C(C)C)c3nc(-c4c(N)cccc4F)c(Cl)cc23)C[C@H]1C` (single isomer, unassigned) [Compound 176], the IC50 falls from 157 nM to 0.5 nM (310-fold). The second is the more potent here.

First: C=CC(=O)N1C[C@H](C)N(c2nc(=O)n(-c3c(C)nc4c(ncn4C)c3C(C)C)c3nc(-c4ccccc4F)c(Cl)cc23)C[C@H]1C (single isomer, unassigned) [Compound 167]
Second: C=CC(=O)N1C[C@H](C)N(c2nc(=O)n(-c3c(C(C)C)nc4c(ncn4C)c3C)c3nc(-c4ccccc4F)c(Cl)cc23)C[C@H]1C (single isomer, unassigned) [Compound 182]
The IC50 of the first is 2.1-fold lower: 0.8 nM for the first, 1.7 nM for the second. The first is the more potent here.

`C=CC(=O)N1C[C@H](C)N(c2nc(=O)n(-c3c(C)nc4c(ncn4C)c3C(C)C)c3nc(-c4ccccc4F)c(Cl)cc23)C[C@H]1C` (single isomer, unassigned) [Compound 168] and `C=CC(=O)N1C[C@H](C)N(c2nc(=O)n(-c3c(C)nc4c(ncn4C)c3C(C)C)c3nc(-c4c(O)cccc4F)c(Cl)cc23)C[C@H]1C` (single isomer, unassigned) [Compound 171] are within 1.5-fold of each other in IC50: 20.3 nM for the first, 15.6 nM for the second.

Going from `C=CC(=O)N1C[C@H](C)N(c2nc(=O)n(-c3c(F)cc4c(ncn4C)c3C(C)C)c3nc(-c4ccccc4F)c(Cl)cc23)C[C@H]1C` (single isomer, unassigned) [Compound 169] to `C=CC(=O)N1C[C@H](C)N(c2nc(=O)n(-c3c(F)cc4c(ncn4C)c3C(C)C)c3nc(-c4c(N)cccc4F)c(Cl)cc23)C[C@H]1C` (single isomer, unassigned) [Compound 173], the IC50 falls from 119 nM to 23.5 nM (5.1-fold).

Going from `C=CC(=O)N1C[C@H](C)N(c2nc(=O)n(-c3c(F)cc4c(ncn4C)c3C(C)C)c3nc(-c4ccccc4F)c(Cl)cc23)C[C@H]1C` (single isomer, unassigned) [Compound 170] to `C=CC(=O)N1C[C@H](C)N(c2nc(=O)n(-c3c(F)cc4c(ncn4C)c3C(C)C)c3nc(-c4c(N)cccc4F)c(Cl)cc23)C[C@H]1C` (single isomer, unassigned) [Compound 174], the IC50 falls from 1 nM to 0.2 nM (5-fold). The second is the more potent here.

First: C=CC(=O)N1C[C@H](C)N(c2nc(=O)n(-c3c(C)nc4c(ncn4C)c3C(C)C)c3nc(-c4c(O)cccc4F)c(Cl)cc23)C[C@H]1C (single isomer, unassigned) [Compound 172]
Second: C=CC(=O)N1C[C@H](C)N(c2nc(=O)n(-c3c(C(C)C)nc4c(ncn4C)c3C)c3nc(-c4c(O)cccc4F)c(Cl)cc23)C[C@H]1C (single isomer, unassigned) [Compound 185]
The IC50 of the first is 18-fold lower: 1.2 nM for the first, 21.7 nM for the second. The first is the more potent here.

First: C=CC(=O)N1C[C@H](C)N(c2nc(=O)n(-c3c(F)cc4c(ncn4C)c3C3CC3)c3nc(-c4c(N)cccc4F)c(Cl)cc23)C[C@H]1C (single isomer, unassigned) [Compound 177]
Second: C=CC(=O)N1C[C@H](C)N(c2nc(=O)n(-c3c(C(C)C)nc4c(ncn4C)c3C)c3nc(-c4c(N)cccc4F)c(Cl)cc23)C[C@H]1C (single isomer, unassigned) [Compound 183]
The IC50 of the first is 2.7-fold higher: 73.7 nM for the first, 27.4 nM for the second.

Compared with `C=CC(=O)N1C[C@H](C)N(c2nc(=O)n(-c3c(F)cc4c(ncn4C)c3C3CC3)c3nc(-c4c(N)cccc4F)c(Cl)cc23)C[C@H]1C` (single isomer, unassigned) [Compound 178], `C=CC(=O)N1C[C@H](C)N(c2nc(=O)n(-c3c(C(C)C)nc4c(ncn4C)c3C)c3nc(-c4c(N)cccc4F)c(Cl)cc23)C[C@H]1C` (single isomer, unassigned) [Compound 184] is 4.5-fold lower in IC50: 0.9 nM for the first, 0.2 nM for the second.

For `C=CC(=O)N1C[C@H](C)N(c2nc(=O)n(-c3c(C(C)C)nc4c(ncn4C)c3C)c3nc(-c4c(O)cccc4F)c(Cl)cc23)C[C@H]1C` (single isomer, unassigned) [Compound 186], the IC50 was 0.9 nM.

Same assay, conditions: NCI-H358 IC50 comparison

In the case of `C=CC(=O)N1C[C@H](C)N(c2nc(=O)n(-c3c(C(C)C)ncnc3C(C)C)c3nc(-c4c(N)cccc4F)c(Cl)cc23)C[C@H]1C` [4-((2S,5R)-4-acryloyl-2,5-dimethylpiperazin-1-yl)-7-(2-amino-6-fluorophenyl)-6-chloro-1-(4,6-diisopropylpyrimidin-5-yl)pyrido[2,3-d]pyrimidin-2(1H)-one], the “fold more potent: 2-amino-6-fluoro-phenyl compound vs. corresponding 2-fluoro-phenyl compound at R8” value is reported as “only slightly more potent”.
